Assay [1] deals with T1, NHE3 (Homo sapiens, UniProt P48764).
T1 construct: expressed in transfected cells
T1 sequence (P48764 26-834): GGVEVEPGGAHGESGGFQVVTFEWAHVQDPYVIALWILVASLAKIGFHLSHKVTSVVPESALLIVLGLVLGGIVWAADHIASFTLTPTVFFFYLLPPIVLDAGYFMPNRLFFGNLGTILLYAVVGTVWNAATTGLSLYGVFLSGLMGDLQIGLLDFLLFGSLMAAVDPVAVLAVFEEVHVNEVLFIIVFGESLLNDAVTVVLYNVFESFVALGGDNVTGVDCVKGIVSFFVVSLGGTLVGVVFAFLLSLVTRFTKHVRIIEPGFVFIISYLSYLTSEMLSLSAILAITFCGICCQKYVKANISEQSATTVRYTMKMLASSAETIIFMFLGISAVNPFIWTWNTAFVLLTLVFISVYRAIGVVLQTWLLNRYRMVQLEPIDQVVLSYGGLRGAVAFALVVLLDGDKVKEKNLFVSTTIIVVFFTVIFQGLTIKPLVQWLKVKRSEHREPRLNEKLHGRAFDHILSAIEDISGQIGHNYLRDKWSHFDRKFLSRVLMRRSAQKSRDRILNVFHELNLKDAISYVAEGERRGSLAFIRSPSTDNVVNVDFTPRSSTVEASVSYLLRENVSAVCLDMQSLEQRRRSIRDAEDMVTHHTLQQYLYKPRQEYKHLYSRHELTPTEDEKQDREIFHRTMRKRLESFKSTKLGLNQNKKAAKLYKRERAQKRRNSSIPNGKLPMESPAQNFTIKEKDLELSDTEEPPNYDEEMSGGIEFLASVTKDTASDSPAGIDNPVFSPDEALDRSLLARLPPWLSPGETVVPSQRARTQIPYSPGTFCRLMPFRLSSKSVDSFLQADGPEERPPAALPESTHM
T1 sequence (Q99653 2-195 partner limits assumed): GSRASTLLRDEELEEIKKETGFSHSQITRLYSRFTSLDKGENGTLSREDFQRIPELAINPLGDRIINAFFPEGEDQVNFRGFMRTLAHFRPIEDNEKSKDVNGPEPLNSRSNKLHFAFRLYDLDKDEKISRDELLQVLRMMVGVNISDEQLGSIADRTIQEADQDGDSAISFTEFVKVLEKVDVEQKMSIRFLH
The assay can be described thus: Cell-based assay of NHE-3 activity (persistent inhibition), human. The settings on record: human Persistence, 60 min incubation then washout. The procedure, abridged:
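Persistent inhibition: compound (0-30 μM, 60 min, RT, NaCl-HEPES pH 7.4) removed before assay. Human NHE3/NHERF2 PS120 cells were then BCECF-loaded during NH4Cl pulse (30 min, 37 °C), acidified in Na+-free buffer, and Na+ added 10 min after washout; antiport measured as initial fluorescence-ratio change per minute.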

In assay [2] the target is T1, NHE3. Briefly: Cell-based assay of NHE-3 activity (pre-incubation inhibition), human. The settings on record: human Preincubation; for pIC50: 0-30 μM test compound. The procedure, abridged:
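Activity read as initial rate of BCECF fluorescence ratio change per minute (ex 439/505, em 538 nm) following NH4Cl prepulse acid loading. Compound (0–30 μM) present during 10 min Na+-free acidification at room temperature; cells were PS120 fibroblasts stably co-expressing human NHE3 and NHERF2.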

From patent publication US11242337B2, “Compounds useful for treating gastrointestinal tract disorders” (Ardelyx, Inc., priority 2017, dated 2022) come the findings set out here.

Each structure is given as a SMILES string. Structures can show the parent of a compound that is named as a salt.

As usually defined, the IC50 is the concentration that inhibits the measured activity by half. For `CC(C)[C@H](COCCOCCNC(=O)NCCCCNC(=O)NCCOCCOC[C@H](NS(=O)(=O)c1ccc(O[C@H]2c3cc(Cl)cc(Cl)c3C[C@@H]2N2CCC[C@@H](N)C2)cc1)C(C)C)NS(=O)(=O)c1ccc(O[C@H]2c3cc(Cl)cc(Cl)c3C[C@@H]2N2CCC[C@@H](N)C2)cc1` [Example 99, 3-(2-[2-[(2R)-2-[(4-[[(1S,2S)-2-[(3R)-3-Aminopiperidin-1-yl]-4,6-dichloro-2,3-dihydro-1H-inden-1-yl]oxy]benzene)sulfonamido]-3-methylbutoxy]ethoxy]ethyl)-1-(4-[[(2-[2-[(2R)-2-[(4-[[(1S,2S)-2-[(3R)-3-aminopiperidin-1-yl]-4,6-dichloro-2,3-dihydro-1H-inden-1-yl]oxy]benzene)sulfonamido]-3-methylbutoxy]ethoxy]ethyl)carbamoyl]amino]butyl)urea], in assay [1], the “% inhibition” value is reported as “C (>70%)” and the concentration for half-maximal inhibition (IC50) is 100 to 1000 nM. For the same compound, in assay [2], the “% inhibition” value is on record as “C (>70%)” and the pIC50 entry is given as “C (NHE3 pIC50 > 7)”.

Turning to `CC(C)(COCCOCCNC(=O)NCCCCNC(=O)NCCOCCOCC(C)(C)NS(=O)(=O)c1ccc(O[C@H]2c3cc(Cl)cc(Cl)c3C[C@@H]2N2CCC[C@@H](N)C2)cc1)NS(=O)(=O)c1ccc(O[C@H]2c3cc(Cl)cc(Cl)c3C[C@@H]2N2CCC[C@@H](N)C2)cc1` [Example 100, 1-[2-(2-[2-[(4-[[(1S,2S)-2-[(3R)-3-Aminopiperidin-1-yl]-4,6-dichloro-2,3-dihydro-1H-inden-1 yl]oxy]benzene)sulfonamido]-2-methylpropoxy]ethoxy)ethyl]-3-[4-([[2-(2-[2-[(4-[[(1S,2S)-2-[(3R)-3-aminopiperidin-1-yl]-4,6-dichloro-2,3-dihydro-1H-inden-1-yl]oxy]benzene)sulfonamido]-2-methylpropoxy]ethoxy)ethyl]carbamoyl]amino)butyl]urea; hydrochloride], in assay [1], the “% inhibition” value is listed as “C (>70%)” and the pIC50 entry is recorded as “C (NHE3 pIC50 > 7)”. Besides, in assay [2], the “% inhibition” value is “C (>70%)” and the pIC50 entry was “C (NHE3 pIC50 > 7)”.

Turning to `COc1cc(O[C@H]2c3cc(Cl)cc(Cl)c3C[C@@H]2N2CCC[C@@H](N)C2)ccc1S(=O)(=O)NCCOCCOCCNC(=O)NCCCCNC(=O)NCCOCCOCCNS(=O)(=O)c1ccc(O[C@H]2c3cc(Cl)cc(Cl)c3C[C@@H]2N2CCC[C@@H](N)C2)cc1OC` [Example 101, 1-[2-(2-[2-[(4-[[(1S,2S)-2-[(3R)-3-Aminopiperidin-1-yl]-4,6-dichloro-2,3-dihydro-1H-inden-1-yl]oxy]-2-methoxybenzene)sulfonamido]ethoxy]ethoxy)ethyl]-3-[4-([[2-(2-[2-[(4-[[(1S,2S)-2-[(3R)-3-aminopiperidin-1-yl]-4,6-dichloro-2,3-dihydro-1H-inden-1-yl]oxy]-2-methoxybenzene)sulfonamido]ethoxy]ethoxy)ethyl]carbamoyl]amino)butyl]urea], in assay [1], the “% inhibition” value is listed as “B (40-70%)” and the pIC50 entry was “C (NHE3 pIC50 > 7)”. In addition, in assay [2], the “% inhibition” value is “C (>70%)” and the pIC50 result is reported as “C (NHE3 pIC50 > 7)”.

For the compound `Cc1cc(O[C@H]2c3cc(Cl)cc(Cl)c3C[C@@H]2N2CCC[C@@H](N)C2)ccc1S(=O)(=O)NCCOCCOCCNC(=O)NCCCCNC(=O)NCCOCCOCCNS(=O)(=O)c1ccc(O[C@H]2c3cc(Cl)cc(Cl)c3C[C@@H]2N2CCC[C@@H](N)C2)cc1C` [Example 102, 3-[2-(2-[2-[(4-[[(1S,2S)-2-[(3R)-3-Aminopiperidin-1-yl]-4,6-dichloro-2,3-dihydro-1H-inden-1-yl]oxy]-2-methylbenzene)sulfonamido]ethoxy]ethoxy)ethyl]-1-[4-([[2-(2-[2-[(4-[[(1S,2S)-2-[(3R)-3-aminopiperidin-1-yl]-4,6-dichloro-2,3-dihydro-1H-inden-1-yl]oxy]-2-methylbenzene)sulfonamido]ethoxy]ethoxy)ethyl]carbamoyl]amino)butyl]urea], the “% inhibition” value in assay [1] and in assay [2] was “C (>70%)” each time. Moreover, the pIC50 result in assay [1] and in assay [2] was “C (NHE3 pIC50 > 7)” throughout.

In the case of `N[C@@H]1CCCN([C@H]2Cc3c(Cl)cc(Cl)cc3[C@@H]2Oc2ccc(S(=O)(=O)NCCOCCOCCNC(=O)NCCCCNC(=O)NCCOCCOCCNS(=O)(=O)c3ccc(O[C@H]4c5cc(Cl)cc(Cl)c5C[C@@H]4N4CCC[C@@H](N)C4)cc3F)c(F)c2)C1` [Example 103, 1-[2-(2-[2-[(4-[[(1S,2S)-2-[(3R)-3-Aminopiperidin-1-yl]-4,6-dichloro-2,3-dihydro-1H-inden-1-yl]oxy]-2-fluorobenzene)sulfonamido]ethoxy]ethoxy)ethyl]-3-[4-([[2-(2-[2-[(4-[[(1S,2S)-2-[(3R)-3-aminopiperidin-1-yl]-4,6-dichloro-2,3-dihydro-1H-inden-1-yl]oxy]-2-fluorobenzene)sulfonamido]ethoxy]ethoxy)ethyl]carbamoyl]amino)butyl]urea], in assay [1], the “% inhibition” value is “C (>70%)” and the pIC50 result is listed as “C (NHE3 pIC50 > 7)”. For the same compound, in assay [2], the “% inhibition” value is listed as “C (>70%)” and the pIC50 result was “C (NHE3 pIC50 > 7)”.

As for `N[C@@H]1CCCN([C@H]2Cc3c(Cl)cc(Cl)cc3[C@@H]2Oc2ccc(S(=O)(=O)NCCOCCOCCNC(=O)NCCCCNC(=O)NCCOCCOCCNS(=O)(=O)c3ccc(O[C@H]4c5cc(Cl)cc(Cl)c5C[C@@H]4N4CCC[C@@H](N)C4)cc3Cl)c(Cl)c2)C1` [Example 104], the “% inhibition” value in assay [1] and in assay [2] was “C (>70%)” each time. Further, the pIC50 entry in assay [1] and in assay [2] was “C (NHE3 pIC50 > 7)” each time.

In the case of `N#Cc1cc(Cl)cc2c1C[C@H](N1CCNCC1)[C@H]2Oc1ccc(S(=O)(=O)N[C@@H]2CCN(CCOCCNC(=O)NCCCCNC(=O)NCCOCCN3CC[C@@H](NS(=O)(=O)c4ccc(O[C@H]5c6cc(Cl)cc(C#N)c6C[C@@H]5N5CCNCC5)cc4)C3)C2)cc1` [Example 108, 4-([(1S,2S)-6-Chloro-4-cyano-2-(piperazin-1-yl)-2,3-dihydro-1H-inden-1-yl]oxy)-N—[(R)-1-(20-[(R)-3-([4-([(1S2S)-6-chloro-4-cyano-2-(piperazin-1-yl)-2,3-dihydro-1H-inden-1-yl]oxy)phenyl]sulfonamido)pyrrolidin-1-yl]-7,14-dioxo-3,18-dioxa-6,8,13,15-tetraazaicosyl)pyrrolidin-3-yl]benzenesulfonamide; tetra(trifluoroacetate)], in assay [1], the “% inhibition” value was “C (>70%)” and the pIC50 result is given as “C (NHE3 pIC50 > 7)”. For the same compound, in assay [2], the “% inhibition” value is “C (>70%)” and the pIC50 result is “C (NHE3 pIC50 > 7)”.

Regarding `CN(C)[C@H]1Cc2c(Cl)cc(Cl)cc2[C@@H]1Oc1ccc(S(=O)(=O)N[C@H]2CCN(CCOCCNC(=O)NCCCCNC(=O)NCCOCCN3CC[C@H](NS(=O)(=O)c4ccc(O[C@H]5c6cc(Cl)cc(Cl)c6C[C@@H]5N(C)C)c(F)c4)C3)C2)cc1F` [Example 111, 4-([(1S,2S)-4,6-Dichloro-2-(dimethylamino)-2,3-dihydro-1H-inden-1-yl]oxy)-N—[(S)-1-(20-[(S)-3-([4-([(1S,2S)-4,6-dichloro-2-(dimethylamino)-2,3-dihydro-1H-inden-1-yl]oxy)-3-fluorophenyl]sulfonamido)pyrrolidin-1-yl]-7,14-dioxo-3,18-dioxa-6,8,13,15-tetraazaicosyl)pyrrolidin-3-yl)-3-fluorobenzenesulfonamide; tetra(trifluoroacetate)], the “% inhibition” value in assay [1] and in assay [2] was “C (>70%)” in each case. Also, the pIC50 result in assay [1] and in assay [2] was “C (NHE3 pIC50 > 7)” each time.
